Measurements from US10189809B2, “SGC stimulators” (Ironwood Pharmaceuticals, Inc., priority 2010, dated 2019).
Like-named read-outs stand apart in the source and are kept apart here.

Columns and labels:
[1] = molecular target: T1, soluble guanylate cyclase (sGC) (Homo sapiens (Human), UniProt Q02108+Q02153); assay: sGC-HEK-cGMP assay run with SNP incubation (HEK WC assay); format: cell-based; conditions: for HEK WC Assay (fold increase at 30 μM in the presence of 10 μM SNP): compound at 30 μM; for EC50: in the presence of 10 uM SNP
T1 sequence (Q02153 whole entry): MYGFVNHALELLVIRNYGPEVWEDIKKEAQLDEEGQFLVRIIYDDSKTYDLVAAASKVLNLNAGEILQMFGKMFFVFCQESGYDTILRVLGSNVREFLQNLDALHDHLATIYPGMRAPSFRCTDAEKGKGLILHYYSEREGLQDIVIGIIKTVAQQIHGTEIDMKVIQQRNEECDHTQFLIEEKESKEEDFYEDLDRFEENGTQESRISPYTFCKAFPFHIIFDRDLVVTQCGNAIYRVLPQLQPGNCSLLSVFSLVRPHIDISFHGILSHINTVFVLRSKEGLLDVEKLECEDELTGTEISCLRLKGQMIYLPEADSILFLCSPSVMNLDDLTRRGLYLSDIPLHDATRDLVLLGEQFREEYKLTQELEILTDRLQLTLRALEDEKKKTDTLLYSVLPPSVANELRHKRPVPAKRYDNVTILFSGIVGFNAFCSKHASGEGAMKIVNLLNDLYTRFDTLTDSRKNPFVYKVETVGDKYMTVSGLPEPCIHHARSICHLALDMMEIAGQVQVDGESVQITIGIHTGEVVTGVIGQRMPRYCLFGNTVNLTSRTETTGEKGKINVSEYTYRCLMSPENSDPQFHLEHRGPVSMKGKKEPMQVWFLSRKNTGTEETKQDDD
T1 sequence (Q02108 whole entry): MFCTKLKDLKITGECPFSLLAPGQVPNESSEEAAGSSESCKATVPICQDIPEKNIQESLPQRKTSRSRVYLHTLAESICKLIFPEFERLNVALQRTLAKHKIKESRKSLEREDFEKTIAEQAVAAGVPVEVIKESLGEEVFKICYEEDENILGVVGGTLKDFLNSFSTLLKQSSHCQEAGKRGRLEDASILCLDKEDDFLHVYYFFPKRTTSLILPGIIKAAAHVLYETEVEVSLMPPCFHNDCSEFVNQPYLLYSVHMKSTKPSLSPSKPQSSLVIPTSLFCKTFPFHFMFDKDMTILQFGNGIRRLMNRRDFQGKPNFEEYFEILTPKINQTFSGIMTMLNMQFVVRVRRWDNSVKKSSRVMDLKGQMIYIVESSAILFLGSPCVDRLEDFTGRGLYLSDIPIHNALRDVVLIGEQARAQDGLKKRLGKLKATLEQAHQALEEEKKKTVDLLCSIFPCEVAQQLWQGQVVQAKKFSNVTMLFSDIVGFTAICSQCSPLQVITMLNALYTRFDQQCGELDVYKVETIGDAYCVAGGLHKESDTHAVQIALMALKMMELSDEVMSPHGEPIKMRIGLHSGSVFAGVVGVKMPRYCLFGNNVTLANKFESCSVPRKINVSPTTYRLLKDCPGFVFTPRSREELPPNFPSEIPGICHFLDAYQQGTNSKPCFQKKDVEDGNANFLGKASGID
Procedure, shortened: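 HEK293 cells with endogenous sGC were pretreated with 0.5 mM IBMX for 15 min at 37 °C, then exposed to test compound plus sodium nitroprusside for 10 min at 37 °C.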

[2] = molecular target: T1, soluble guanylate cyclase (sGC); assay: sGC-HEK-cGMP assay run in the absence of SNP (HEK WC assay); format: cell-based; conditions: compound at 30 μM, absence of SNP
Experimental: Human embryonic kidney cells (HEK293), endogenously expressing soluble guanylate cyclase (sGC), were used to evaluate the activity of test compounds. Compounds stimulating the sGC receptor should cause an increase in the intracellular concentration of cGMP. HEK 293 cells were seeded in Dulbecco's Modification of Eagle's Medium supplemented with fetal bovine serum (10% final) and L-glutamine (2 mM final) in a 200 μL volume at a density of 1×10^5 cells/well in a poly-D-lysine coated 96 well flat bottom plate and grown overnight at 37° C. Medium was aspirated and cells were washed with 1× Hank's Buffered Saline Salt Solution (200 μL). Cells were then incubated for 15 minutes at 37° C. with 0.5 mM 3-isobutyl-1-methylxanthine (200 μL). Test article was then added to the assay mixture (2 μL) and incubated at 37° C. for 10 minutes. After the 10 minute incubation, the assay mixture was aspirated and 0.1M HCl (200 μL) was added to the cells. The plate was incubated at 4° C. for 30 minutes in the 0.1M HCl to stop the reaction and lysed the cells. The plates were then centrifuged at 1,200 g for 5 minutes at room temperature. Supernatants were collected and transferred to a new flat bottom 96 well plate for analysis. Vehicle controls were carried out using DMSO (1%). A known sGC stimulator, BAY 41-2272, was used as the positive control. Samples were diluted with an equal volume of 1 M Ammonium Acetate (pH 7) to neutralize samples for better chromatography. A 2× cGMP standard curve was prepared in 0.1 M HCl and then diluted with an equal volume of 1 M Ammonium Acetate, with the following final concentrations in nM: 1024, 512, 256, 128, 64, 32, 16, 8, 4, 2, 1. cGMP concentrations were determined from each sample using the LC/MS conditions (Table 2 below) and calculated standard curve. EC50 values were calculated from concentration-response curves generated with GraphPad Prism Software.

[3] = read-out: HEK WC Assay (% Emax at 1 μM with 10 uM SNP)
[4] = read-out: HEK WC Assay (% Emax at 10 μM with 10 uM SNP)
[5] = read-out: HEK WC Assay (% Emax at 30 μM with 10 uM SNP)

SMILES	HEK WC Assay (fold increase at 30 μM in the presence of 10 μM SNP) [1]	EC50 [1]	Emax [1, 3]	Emax [1, 4]	Emax [1, 5]	HEK WC Assay (fold increase at 30 μM in the absence of SNP) [2]
Nc1nc(-c2cc(-c3ccon3)n(Cc3ccccc3F)n2)ncc1NC(=O)[C@@H]1CCCN1 [Compound I-225]	E (E = 10 to <20 fold increase)	60 to 100 µM	0 to 10%	20 to 40%	20 to 40%	C (C = 2 to <5 fold increase)
CC(F)(F)C(=O)Nc1cnc(-c2cc(-c3ccon3)n(Cc3ccccc3F)n2)nc1N [Compound I-226]	F (F = 20 to <30 fold increase)	< 20 µM	40 to 60%	80 to 100%	60 to 80%	E (E = 10 to <20 fold increase)
C/C=C(\C)C(=O)Nc1cnc(-c2cc(-c3ccon3)n(Cc3ccccc3F)n2)nc1N [Compound I-227]	F (F = 20 to <30 fold increase)	< 20 µM	40 to 60%	60 to 80%	60 to 80%	F (F = 20 to <30 fold increase)
CN(C(=O)c1ccccc1)c1cnc(-c2cc(-c3ccon3)n(Cc3ccccc3F)n2)nc1N [Compound I-228]	E (E = 10 to <20 fold increase)	20 to 40 µM	10 to 20%	40 to 60%	40 to 60%	C (C = 2 to <5 fold increase)
CO[C@@](C(=O)Nc1cnc(-c2cc(-c3ccon3)n(Cc3ccccc3F)n2)nc1N)(c1ccccc1)C(F)(F)F [Compound I-229]	E (E = 10 to <20 fold increase)	20 to 40 µM	20 to 40%	40 to 60%	20 to 40%	C (C = 2 to <5 fold increase)
CC1(C(=O)Nc2cnc(-c3cc(-c4ccon4)n(Cc4ccccc4F)n3)nc2N)CCCCC1 [Compound I-231]	E (E = 10 to <20 fold increase)	< 20 µM	60 to 80%	80 to 100%	80 to 100%	E (E = 10 to <20 fold increase)
CC1(C(=O)Nc2cnc(-c3cc(-c4ccon4)n(Cc4ccccc4F)n3)nc2N)CCCO1 (stereo not drawn) [Compound I-232]	E (E = 10 to <20 fold increase)	< 20 µM	20 to 40%	60 to 80%	60 to 80%	C (C = 2 to <5 fold increase)
Nc1nc(-c2cc(-c3ccon3)n(Cc3ccccc3F)n2)ncc1NC(=O)C12CC3CC(CC(C3)C1)C2 [Compound I-233]	F (F = 20 to <30 fold increase)	< 20 µM	80 to 100%	80 to 100%	80 to 100%	E (E = 10 to <20 fold increase)
CN(C(=O)C(C)(C)C)c1cnc(-c2cc(-c3ccon3)n(Cc3ccccc3F)n2)nc1N [Compound I-234]	E (E = 10 to <20 fold increase)	< 20 µM	20 to 40%	40 to 60%	40 to 60%	C (C = 2 to <5 fold increase)
CC(C)(C(=O)Nc1cnc(-c2cc(-c3ccon3)n(Cc3ccccc3F)n2)nc1N)c1ccccc1 [Compound I-236]	E (E = 10 to <20 fold increase)	< 20 µM	20 to 40%	60 to 80%	60 to 80%	C (C = 2 to <5 fold increase)
Nc1nc(-c2cc(-c3ccon3)n(Cc3ccccc3F)n2)ncc1NC(=O)/C=C/c1ccccc1 [Compound I-239]	E (E = 10 to <20 fold increase)	< 20 µM	40 to 60%	60 to 80%	60 to 80%	D (D = 5 to <10 fold increase)
